From PubChem BioAssay AID328 (DTP/NCI, 2004) come the findings set out here.

In this assay the test system is BDF1 mice, P388 leukemia ip, median survival T/C. Description: NCI In Vivo Anticancer Drug Screen. Data for tumor model P388 Leukemia (intraperitoneal) in B6D2F1 (BDF1) mice. The settings on record: endpoint: median survival time, higher = longer survival. The method, boiled down: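 T/C = treated-group survival ÷ vehicle-control survival; tumour transplanted into mice before dosing.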

Setting [1] is: dose: 100.0 mg/kg/injection, schedule: Q04DX003 (ip), vehicle: Klucel (hydroxypropylcellulose) (HPC).
[2] abbreviates: dose: 100.0 mg/kg/injection, schedule: Q04DX003 (ip), vehicle: saline with Tween-80.
The mark [3] stands for this setting: dose: 200.0 mg/kg/injection, schedule: Q04DX003 (ip), vehicle: saline with Tween-80.
Setting [4] is: dose: 100.0 mg/kg/injection, schedule: Q04DX003 (ip), vehicle: saline.
Where [5] appears, read: dose: 200.0 mg/kg/injection, schedule: Q04DX003 (ip), vehicle: saline.

Several values for one entry are separate records, joined by “and”; a condition that tells them apart may be missing. Equal values may be shown once. Toxic doses and inconclusive results are not listed.

Take `CCOC1=C(N2CC2)C(=O)C(OCC)=C(N2CC2)C1=O`: the T/C runs as follows: (dose: 0.07 mg/kg/injection, schedule: Q01DX009 (ip), vehicle: saline with Tween-80) 95 % of control; (dose: 0.25 mg/kg/injection, schedule: Q01DX009 (ip), vehicle: saline) 165 % of control; (dose: 0.25 mg/kg/injection, schedule: Q04DX003 (ip), vehicle: saline) 109 % of control; (dose: 0.3 mg/kg/injection, schedule: Q01DX009 (ip), vehicle: saline with Tween-80) 122 % of control; (dose: 0.5 mg/kg/injection, schedule: Q01DX009 (ip), vehicle: saline) 152 % of control and 190 % of control; (dose: 0.5 mg/kg/injection, schedule: Q04DX003 (ip), vehicle: saline) 154 % of control. Moreover, the T/C runs as follows: (dose: 0.6 mg/kg/injection, schedule: Q01DX009 (ip), vehicle: saline with Tween-80) 153 % of control; (dose: 0.63 mg/kg/injection, schedule: Q04DX003 (ip), vehicle: saline) 122 % of control; (dose: 1.0 mg/kg/injection, schedule: Q01DX009 (ip), vehicle: saline) 245 % of control and 195 % of control; (dose: 1.0 mg/kg/injection, schedule: Q04DX003 (ip), vehicle: saline) 200 % of control; (dose: 2.0 mg/kg/injection, schedule: Q01DX009 (ip), vehicle: saline) 242 % of control and 105 % of control; (dose: 2.5 mg/kg/injection, schedule: Q04DX003 (ip), vehicle: saline) 172 % of control. The T/C (dose: 4.0 mg/kg/injection, schedule: Q01DX009 (ip), vehicle: saline) is 114 % of control.
As to `O=C(O)c1ccc(CCCC2CCCC2)cc1`, the T/C reads like this: under setting [1], 109 % of control; (dose: 200.0 mg/kg/injection, schedule: Q04DX003 (ip), vehicle: Klucel (hydroxypropylcellulose) (HPC)) 100 % of control.
Turning to `CC(C(O)c1cccs1)C(O)(C(F)(F)F)C(F)(F)F` (configuration not stated), the T/C under setting [2] is 90 % of control and the T/C under setting [3] was 109 % of control.
`C[n+]1cccc2c3ccccc3c(-c3ccccc3)cc21`: the T/C by setting is: (dose: 0.39 mg/kg/injection, schedule: Q01DX009 (ip), vehicle: water) 101 % of control; (dose: 0.78 mg/kg/injection, schedule: Q01DX009 (ip), vehicle: water) 90 % of control and 106 % of control; (dose: 1.56 mg/kg/injection, schedule: Q01DX009 (ip), vehicle: water) 89 % of control and 94 % of control and 103 % of control; (dose: 3.12 mg/kg/injection, schedule: Q01DX009 (ip), vehicle: water) 87 % of control and 93 % of control and 116 % of control; (dose: 6.25 mg/kg/injection, schedule: Q01DX009 (ip), vehicle: water) 98 % of control and 104 % of control and 122 % of control; (dose: 6.25 mg/kg/injection, schedule: Q04DX003 (ip), vehicle: water) 90 % of control. Moreover, the T/C was 100 % of control and 111 % of control (dose: 12.5 mg/kg/injection, schedule: Q01DX009 (ip), vehicle: water); 103 % of control (dose: 12.5 mg/kg/injection, schedule: Q04DX003 (ip), vehicle: water); 112 % of control (dose: 25.0 mg/kg/injection, schedule: Q04DX003 (ip), vehicle: water); 113 % of control (dose: 50.0 mg/kg/injection, schedule: Q01DX009 (ip), vehicle: water).
Consider `CCN(CC)c1ccc(/C=C/c2ccnc3ccccc23)cc1`, for which the T/C by setting is: (dose: 1.56 mg/kg/injection, schedule: Q01DX009 (ip), vehicle: saline with Tween-80) 95 % of control; (dose: 3.13 mg/kg/injection, schedule: Q01DX009 (ip), vehicle: saline with Tween-80) 105 % of control; (dose: 6.25 mg/kg/injection, schedule: Q01DX009 (ip), vehicle: saline with Tween-80) 90 % of control.
For the compound `Oc1cccc2c1[O][Sb][O]2`, the T/C runs as follows: (dose: 3.0 mg/kg/injection, schedule: Q01DX009 (ip), vehicle: saline with Tween-80) 102 % of control; (dose: 6.0 mg/kg/injection, schedule: Q01DX009 (ip), vehicle: saline with Tween-80) 110 % of control; (dose: 11.0 mg/kg/injection, schedule: Q04DX003 (ip), vehicle: saline with Tween-80) 112 % of control; (dose: 16.5 mg/kg/injection, schedule: Q04DX003 (ip), vehicle: saline with Tween-80) 112 % of control; (dose: 25.0 mg/kg/injection, schedule: Q01DX009 (ip), vehicle: saline with Tween-80) 110 % of control.
For the compound `Cn1c(N)c(N=Cc2ccc(Cl)cc2)c(=O)n(C)c1=O`, the T/C under setting [2] is 92 % of control and the T/C under setting [3] is 99 % of control.
As for `CCCNc1ncnc2c1cnn2C`, the T/C (dose: 12.5 mg/kg/injection, schedule: Q01DX009 (ip), vehicle: saline) was 88 % of control; the T/C (dose: 25.0 mg/kg/injection, schedule: Q01DX009 (ip), vehicle: saline) was 112 % of control; the T/C (dose: 50.0 mg/kg/injection, schedule: Q01DX009 (ip), vehicle: saline) is 108 % of control; the T/C under setting [4] was 120 % of control; the T/C under setting [5] was 120 % of control.
Turning to `CC1=NN(c2ccccc2)C(=O)C1C(=S)SC1CC(=O)OC1=O` (configuration not stated), the T/C by setting is: (dose: 50.0 mg/kg/injection, schedule: Q01DX009 (ip), vehicle: saline with Tween-80) 100 % of control; (dose: 100.0 mg/kg/injection, schedule: Q01DX009 (ip), vehicle: saline with Tween-80) 112 % of control.
As to `COC(=O)Nc1nc2ccc(C(=O)c3cccs3)cc2[nH]1`, the T/C was 117 % of control (dose: 20.0 mg/kg/injection, schedule: Q01DX009 (ip), vehicle: saline with Tween-80); 167 % of control (dose: 21.6 mg/kg/injection, schedule: Q04DX003 (ip), vehicle: other); 153 % of control (dose: 22.0 mg/kg/injection, schedule: Q04DX003 (ip), vehicle: other); 199 % of control (dose: 36.0 mg/kg/injection, schedule: Q04DX003 (ip), vehicle: other); 183 % of control (dose: 40.0 mg/kg/injection, schedule: Q01DX009 (ip), vehicle: saline with Tween-80); 163 % of control and 173 % of control (dose: 50.0 mg/kg/injection, schedule: Q04DX003 (ip), vehicle: Klucel (hydroxypropylcellulose) (HPC)). In addition, the T/C (dose: 60.0 mg/kg/injection, schedule: Q01DX009 (ip), vehicle: saline with Tween-80) was 225 % of control; the T/C (dose: 60.0 mg/kg/injection, schedule: Q04DX003 (ip), vehicle: other) was 274 % of control; the T/C (dose: 75.0 mg/kg/injection, schedule: Q04DX003 (ip), vehicle: Klucel (hydroxypropylcellulose) (HPC)) is 173 % of control and 175 % of control; the T/C (dose: 75.0 mg/kg/injection, schedule: Q04DX003 (ip), vehicle: saline with Tween-80) is 193 % of control; the T/C under setting [1] was 165 % of control and 184 % of control.
`CCCCN(C)/N=N/c1[nH]ncc1C(=O)OCC`: the T/C was 116 % of control (dose: 100.0 mg/kg/injection, schedule: Q04DX003 (ip), vehicle: other); 108 % of control (dose: 200.0 mg/kg/injection, schedule: Q04DX003 (ip), vehicle: other); 100 % of control (dose: 400.0 mg/kg/injection, schedule: Q04DX003 (ip), vehicle: other).
For the compound `O=[N+]([O-])c1ccc(N/N=C(\COc2ccccc2)c2ccccc2)c([N+](=O)[O-])c1`, the T/C (dose: 6.25 mg/kg/injection, schedule: Q01DX001 (ip), vehicle: saline with Tween-80) is 95 % of control; the T/C (dose: 12.5 mg/kg/injection, schedule: Q01DX001 (ip), vehicle: saline with Tween-80) is 100 % of control; the T/C (dose: 25.0 mg/kg/injection, schedule: Q01DX001 (ip), vehicle: saline with Tween-80) was 104 % of control.
In the case of `O`, the T/C is 95 % of control (dose: 100.0 mg/kg/injection, schedule: Q01DX001 (ip), vehicle: saline); 105 % of control under setting [4]; 90 % of control (dose: 200.0 mg/kg/injection, schedule: Q01DX001 (ip), vehicle: saline); 95 % of control under setting [5]; 90 % of control (dose: 400.0 mg/kg/injection, schedule: Q01DX001 (ip), vehicle: saline); 105 % of control (dose: 400.0 mg/kg/injection, schedule: Q04DX003 (ip), vehicle: saline).
As to `CC1=C/C(O)CC(=O)Cc2nc(co2)C(=O)N2CCC=C2C(=O)OC(C(C)C)C(C)/C=C\C(=O)NC/C=C\1` (configuration not stated), the T/C is 118 % of control (dose: 100.0 mg/kg/injection, schedule: Q01DX009 (ip), vehicle: Klucel (hydroxypropylcellulose) (HPC)); 105 % of control (dose: 0.5 micrograms/kg/injection, schedule: Q01DX009 (ip), vehicle: saline); 101 % of control (dose: 1.0 micrograms/kg/injection, schedule: Q01DX009 (ip), vehicle: saline); 108 % of control (dose: 2.0 micrograms/kg/injection, schedule: Q01DX009 (ip), vehicle: saline); 101 % of control (dose: 4.0 micrograms/kg/injection, schedule: Q01DX009 (ip), vehicle: saline).
